Assay results taken from US6656969B2, “Methods and compositions for inhibiting the proliferation of prostate cancer cells” (Mayo Foundation for Medical Education and Research, priority 2001, dated 2003).

How the values were obtained:
hsp70 = experiment: Level of hsp70; assay type: cell-based
[1] = tested on: androgen-regulated genes (NKX 3.1, ODC, fkbp 51, Drg-1, PSA); experiment: Northern blot of androgen-regulated genes in LNCaP cells; assay type: cell-based, human
Description: A denaturing RNA gel was run and transferred onto a nylon membrane (BioRad) according to the GeneScreen protocol (New England Nuclear). Fifteen μg of total RNA was loaded in each lane. cDNAs for PSA, ornithine decarboxylase (ODC), NKX 3.1, fkbp 51, Drg-1 and glyceraldehyde-3-phosphate dehydogenase (GAPDH) were labeled with [P^32]dCTP by random priming and used as probes. The hybridizations were performed according to the recommended protocol using ExpressHyb Hybridization Solution (Clontech, Palo Alto, Calif.). The films were autoradiographed at −70° C. overnight.

hsp90 = experiment: Level of hsp90; assay type: cell-based
PSA = PSA quantification in spent media (Tandem-E PSA kit); assay type: cell-based, human; settings: LNCaP cells, 1 nM Mib, six days, normalized to cell number
Description: (§1) A human prostate cancer cell line, LNCaP (American Type Culture Collection (ATCC), Manassas, Va.), was cultured in RPMI 1640 medium (Mediatech, Herndon, Va.) supplemented with 5% fetal bovine serum (FBS) at 37° C. and 5% CO2 until reaching approximately 50-70% confluence. The media were changed to serum-free RPMI 1640 24 hrs prior to experiments being performed to deplete undesired steroids. […] Equivalent amounts of solvent were added to control cells.
(§2) For cell proliferation and PSA expression assays, LNCaP cells were seeded at 2×10^4 cells per well in 24 well plates. […] Six days after treatment, 400 μl of spent media were collected for total PSA protein measurements by the Tandem-E PSA kit (Hybritech Inc. San Diego, Calif.). An MTS assay was performed (Promega, Madison, Wis.) for measuring cell viability. Four wells per treatment were used for the above assays and it was repeated twice. PSA levels in spent media were normalized to cell number.

LNCaP cells = experiment: Cell proliferation (MTS) assay, androgen-stimulated growth; assay type: cell-based, human; settings: six days; for androgen-stimulated cell growth: with 1 nM mibolerone (Mib)
Description: as §1, §2

ARA70 = experiment: Level of androgen receptor specific co-activator ARA70; assay type: cell-based
c-fos = experiment: Level of c-fos in LNCaP cells; assay type: cell-based, human
androgen receptor = molecular target: T1, androgen receptor (Homo sapiens, UniProt P10275, T878A); assay type: cell-based; settings: LNCaP cells, 3.2 nM Mib
T1 construct: LNCaP cells express the androgen receptor; endogenous in cells; host or cells: LNCaP
T1 sequence (P10275 whole entry T878A): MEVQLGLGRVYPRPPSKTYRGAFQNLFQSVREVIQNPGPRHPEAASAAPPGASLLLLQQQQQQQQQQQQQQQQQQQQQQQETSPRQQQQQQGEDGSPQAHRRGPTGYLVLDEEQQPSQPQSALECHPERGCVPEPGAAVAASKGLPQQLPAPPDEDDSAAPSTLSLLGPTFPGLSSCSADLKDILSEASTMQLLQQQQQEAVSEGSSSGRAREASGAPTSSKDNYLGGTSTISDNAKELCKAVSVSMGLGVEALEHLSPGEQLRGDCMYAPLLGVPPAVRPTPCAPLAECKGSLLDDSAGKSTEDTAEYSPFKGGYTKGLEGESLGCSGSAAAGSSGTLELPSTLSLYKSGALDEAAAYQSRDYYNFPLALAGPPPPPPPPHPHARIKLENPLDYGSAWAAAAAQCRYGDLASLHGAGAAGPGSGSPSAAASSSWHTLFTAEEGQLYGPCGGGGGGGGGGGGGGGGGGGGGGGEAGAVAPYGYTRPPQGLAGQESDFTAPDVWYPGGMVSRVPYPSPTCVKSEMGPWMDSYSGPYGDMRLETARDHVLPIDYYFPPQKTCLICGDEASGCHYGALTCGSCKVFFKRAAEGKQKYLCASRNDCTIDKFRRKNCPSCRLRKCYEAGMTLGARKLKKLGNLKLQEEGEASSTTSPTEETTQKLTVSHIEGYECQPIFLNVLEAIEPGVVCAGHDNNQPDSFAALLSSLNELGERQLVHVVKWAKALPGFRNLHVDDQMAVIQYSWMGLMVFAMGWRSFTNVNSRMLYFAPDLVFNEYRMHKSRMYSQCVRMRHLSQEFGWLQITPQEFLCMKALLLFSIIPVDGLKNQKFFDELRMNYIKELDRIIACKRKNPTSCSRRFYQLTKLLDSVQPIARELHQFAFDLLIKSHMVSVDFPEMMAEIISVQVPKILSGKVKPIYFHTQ
Description: LNCaP or PC-3 cells were plated in 60 mm dishes. Cells were transiently transfected as described (Zhang et al., 1999, Endocrin, 140:1665-71) with either 3 copies of an hK2 ARE in a pGL3 promoter plasmid, CMV-β-gal, a human androgen receptor expression vector or a c-jun expression vector as indicated. The androgen receptor and c-jun constructs were driven by an SV40 promoter. LNCaP cells were transfected using liposome containing dimethyldioctadecyl-ammonium bromide (DDAB) (Sigma) and L-α-lecithin (Sigma) (4:10 w/w) and PC-3 cells were transfected using lipofectamine (Gibco BRL, Grand Island, N.Y.). […] Whole cell extracts were prepared according to Ren et al., (2000, Oncogene, 19:1924-32) and a luciferase assay was performed according to manufacturer's instructions (Promega). The CMV-β-galactosidase (β-gal) expression vector and the parental vector (pGL3) were included as controls in the above transfections. β-gal activity or total protein using the Bradford assay (BioRad, Hercules, Calif.) were assayed for normalization purposes. Luciferase activities were normalized to β-gal activities and presented as relative light units/mU β-gal. Each transfection was done three times and results were analyzed by the Student's t-test. A p<0.05 was accepted as the level of significance.

Compound	levels of hsp70 (hsp70)	mRNA and protein levels of PSA and hK2 ([1]; summary statement)	levels of hsp90 (hsp90)	androgen-stimulated PSA secretion (PSA)	androgen-stimulated cell growth (LNCaP cells)	levels of ARA70 (ARA70)	androgen-induced mRNA of NKX 3.1, ODC, fkbp 51, Drg-1 and PSA ([1]; 1 nM Mib, DHA at 150 μM or higher)	levels of c-fos (c-fos)	cell growth without androgen stimulation (LNCaP cells; without Mib)	ARE luciferase activity, androgen alone (androgen receptor)
CCC=CCC=CCC=CCC=CC/C=C\CCCC(=O)O [EPA, cis-5,8, 11, 14, 17-eicosapentaenoic acid]	no inhibitory effects were observed	reduce both the mRNA and protein levels	no inhibitory effects were observed	required higher EPA concentrations for significant inhibition	decreased androgen-stimulated cell growth					
CCC=CCC=CCC=CCC=CCC=CC/C=C\CCC(=O)O [DHA, cis-4,7, 10, 13, 16, 19-docosahexaenoic acid]	no inhibitory effects were observed		no inhibitory effects were observed	decrease in androgen-stimulated PSA secretion	dose-dependent statistically significant decrease in cell growth	no inhibitory effects were observed	greatly inhibited the androgen-induced response	unaltered	little response	
C[C@@H]1CC2=CC(=O)CC[C@@H]2[C@H]2CC[C@@]3(C)[C@@H](CC[C@]3(C)O)[C@@H]21 [Mib, mibolerone]										strong androgenic induction of luciferase activity
